In patent publication EP0753009B1, “MALARIA PEPTIDES” (Oxxon Pharmaccines Limited, priority 1994, dated 2001):
Marks after values point to notes of the source that are not given here. Residues, ends and D or L forms follow the SMILES beside them.

System: HLA matched or autologous B cell line targets pre-pulsed with the peptide
Test: Standard CTL chromium release assay with restimulated lymphocytes from malaria-exposed Gambians (secondary CTL response)
Format: cell-based, humans
Conditions: HLA-A2
Experimental: Peptides shown to bind to a particular HLA class I allele were tested for CTL recognition in assays using lymphocytes from malaria-exposed Gambians, as described previously^1. A minority of peptides, synthesized to correspond to a peptides binding motif were not tested in the relevant assembly assay but tested only for CTL recognition. Cells from 82 adult Gambians and 53 Gambian children, all exposed to malaria, were used in the course of these studies. The children and adults were HLA typed using cellular or molecular techniques as described previously^1. Peptides were incubated with cells either singly, or in pools as described^1 at concentrations of 10-100µM. Peptides could either be left with the cells for the duration of restimulation (as reported^1) or washed off after an hour. Cells were cultured for 1-3 weeks before a standard CTL chromium release assay^1 was performed using HLA matched or autologous B cell line targets pre-pulsed with the peptide to be tested. Peptides were tested either singly or in pools for CTL recognition.

Row | Compound | epitope for a secondary cytotoxic T lymphocyte response (asterisk mark)
1 | CC[C@H](C)[C@H](NC(=O)[C@H](CCCCN)NC(=O)[C@H](CCC(N)=O)NC(=O)[C@H](CC(C)C)NC(=O)[C@@H](N)Cc1ccc(O)cc1)C(=O)N[C@@H](CCCCN)C(=O)N[C@@H](CC(N)=O)C(=O)N[C@@H](CO)C(=O)N[C@@H](CC(C)C)C(=O)O [cp38] (H-YLQKIKNSL-OH) | cp38 *
2 | CC[C@H](C)[C@H](NC(=O)CN)C(=O)N[C@@H](C)C(=O)NCC(=O)NCC(=O)N[C@@H](CC(C)C)C(=O)N[C@@H](C)C(=O)N[C@@H](CC(C)C)C(=O)N[C@@H](CC(C)C)C(=O)O [tr39] (H-GIAGGLALL-OH) | tr39 *
3 | CC(C)C[C@H](NC(=O)[C@H](Cc1ccc(O)cc1)NC(=O)[C@H](CCCCN)NC(=O)[C@@H](NC(=O)[C@H](CC(N)=O)NC(=O)CNC(=O)[C@H](CC(C)C)NC(=O)[C@@H](N)Cc1c[nH]cn1)C(C)C)C(=O)N[C@H](C(=O)O)C(C)C [tr26] (H-HLGNVKYLV-OH) | tr26 *
4 | CC[C@H](C)[C@H](NC(=O)[C@@H](NC(=O)[C@H](CCCCN)NC(=O)[C@H](CC(C)C)NC(=O)[C@@H](N)Cc1ccc(O)cc1)[C@@H](C)O)C(=O)N[C@@H](CCC(N)=O)C(=O)N[C@@H](CC(N)=O)C(=O)N[C@@H](CO)C(=O)N[C@@H](CC(C)C)C(=O)O [cp36] (H-YLKTIQNSL-OH) | cp36 *
5 | CC[C@H](C)[C@H](NC(=O)[C@H](CCCCN)NC(=O)[C@H](CCC(N)=O)NC(=O)[C@H](CC(C)C)NC(=O)[C@@H](N)Cc1ccc(O)cc1)C(=O)N[C@@H](CCC(N)=O)C(=O)N[C@@H](CC(N)=O)C(=O)N[C@@H](CO)C(=O)N[C@@H](CC(C)C)C(=O)O [cp37] (H-YLQKIQNSL-OH) | cp37 *
